Seven molecules from PubChem BioAssay AID1259407 (Chemical Carcinogenesis Research Information System (CCRIS), 2018) can be followed below.

Active and inactive are the calls of the source. How the calls were made is not given here.

The data set concerns CCRIS mutagenicity, Ames/micronucleus/aberration tests. Put plainly: CCRIS mutagenicity studies.
Where [1] appears, read: Test System: AMES SALMONELLA TYPHIMURIUM, Strain/Indicator: TA98, Metabolic Activation: NONE, Method: PREINCUBATION
Where [2] appears, read: Test System: AMES SALMONELLA TYPHIMURIUM, Strain/Indicator: TA100, Metabolic Activation: NONE, Method: PREINCUBATION
[3] abbreviates: Test System: AMES SALMONELLA TYPHIMURIUM, Strain/Indicator: TA100, Metabolic Activation: NONE, Method: STANDARD PLATE.
Setting [4] is: Test System: AMES SALMONELLA TYPHIMURIUM, Strain/Indicator: TA98, Metabolic Activation: NONE, Method: STANDARD PLATE.

`CN1C(=O)C(O)CC1c1cccnc1` (stereo not drawn): the mutagenic call reads like this: under setting [1], “inactive; negative”; (Test System: AMES SALMONELLA TYPHIMURIUM, Strain/Indicator: TA98, Metabolic Activation: RAT, LIVER, S-9, AROCLOR 1254 (5%), Method: PREINCUBATION) “inactive; negative”; under setting [2], “inactive; negative”; (Test System: AMES SALMONELLA TYPHIMURIUM, Strain/Indicator: TA100, Metabolic Activation: RAT, LIVER, S-9, AROCLOR 1254 (5%), Method: PREINCUBATION) “inactive; negative”; (Test System: AMES SALMONELLA TYPHIMURIUM, Strain/Indicator: TA1535, Metabolic Activation: NONE, Method: PREINCUBATION) “inactive; negative”; (Test System: AMES SALMONELLA TYPHIMURIUM, Strain/Indicator: TA1535, Metabolic Activation: RAT, LIVER, S-9, AROCLOR 1254 (5%), Method: PREINCUBATION) “inactive; negative”. Moreover, the mutagenic call was “inactive; negative” (Test System: AMES SALMONELLA TYPHIMURIUM, Strain/Indicator: TA1537, Metabolic Activation: NONE, Method: PREINCUBATION); “inactive; negative” (Test System: AMES SALMONELLA TYPHIMURIUM, Strain/Indicator: TA1537, Metabolic Activation: RAT, LIVER, S-9, AROCLOR 1254 (5%), Method: PREINCUBATION); “inactive; negative” (Test System: AMES SALMONELLA TYPHIMURIUM, Strain/Indicator: TA1538, Metabolic Activation: NONE, Method: PREINCUBATION); “inactive; negative” (Test System: AMES SALMONELLA TYPHIMURIUM, Strain/Indicator: TA1538, Metabolic Activation: RAT, LIVER, S-9, AROCLOR 1254 (5%), Method: PREINCUBATION).
Consider `CC(=O)Oc1c(OC(C)=O)c2c([N+](=O)[O-])ccc3c4ccccc4c4cccc1c4c23`, for which the mutagenic call runs as follows: (Test System: AMES SALMONELLA TYPHIMURIUM, Strain/Indicator: TA98, Metabolic Activation: NONE', Method: STANDARD PLATE) “active; positive”; under setting [3], “active; positive”.
For the molecule `O=c1c(O)c(O)c1=O`, the mutagenic call is “inactive; negative” (Test System: AMES SALMONELLA TYPHIMURIUM, Strain/Indicator: TA98, Metabolic Activation: HAMSTER, LIVER, S-9, AROCLOR 1254, Method: STANDARD PLATE); “inactive; negative” under setting [4]; “inactive; negative” (Test System: AMES SALMONELLA TYPHIMURIUM, Strain/Indicator: TA98, Metabolic Activation: RAT, LIVER, S-9, AROCLOR 1254, Method: STANDARD PLATE); “inactive; negative” (Test System: AMES SALMONELLA TYPHIMURIUM, Strain/Indicator: TA100, Metabolic Activation: HAMSTER, LIVER, S-9, AROCLOR 1254, Method: STANDARD PLATE); “inactive; negative” under setting [3]; “inactive; negative” (Test System: AMES SALMONELLA TYPHIMURIUM, Strain/Indicator: TA100, Metabolic Activation: RAT, LIVER, S-9, AROCLOR 1254, Method: STANDARD PLATE). For the same molecule, the mutagenic call (Test System: AMES SALMONELLA TYPHIMURIUM, Strain/Indicator: TA1535, Metabolic Activation: HAMSTER, LIVER, S-9, AROCLOR 1254, Method: STANDARD PLATE) was “inactive; negative”; the mutagenic call (Test System: AMES SALMONELLA TYPHIMURIUM, Strain/Indicator: TA1535, Metabolic Activation: NONE, Method: STANDARD PLATE) is “inactive; negative”; the mutagenic call (Test System: AMES SALMONELLA TYPHIMURIUM, Strain/Indicator: TA1535, Metabolic Activation: RAT, LIVER, S-9, AROCLOR 1254, Method: STANDARD PLATE) was “inactive; negative”; the mutagenic call (Test System: AMES SALMONELLA TYPHIMURIUM, Strain/Indicator: TA1537, Metabolic Activation: HAMSTER, LIVER, S-9, AROCLOR 1254, Method: STANDARD PLATE) was “inactive; negative”; the mutagenic call (Test System: AMES SALMONELLA TYPHIMURIUM, Strain/Indicator: TA1537, Metabolic Activation: NONE, Method: STANDARD PLATE) is “inactive; negative”; the mutagenic call (Test System: AMES SALMONELLA TYPHIMURIUM, Strain/Indicator: TA1537, Metabolic Activation: RAT, LIVER, S-9, AROCLOR 1254, Method: STANDARD PLATE) is “inactive; negative”. Further, the mutagenic call is “inactive; negative” (Test System: AMES SALMONELLA TYPHIMURIUM, Strain/Indicator: TA1538, Metabolic Activation: HAMSTER, LIVER, S-9, AROCLOR 1254, Method: STANDARD PLATE); “inactive; negative” (Test System: AMES SALMONELLA TYPHIMURIUM, Strain/Indicator: TA1538, Metabolic Activation: NONE, Method: STANDARD PLATE); “inactive; negative” (Test System: AMES SALMONELLA TYPHIMURIUM, Strain/Indicator: TA1538, Metabolic Activation: RAT, LIVER, S-9, AROCLOR 1254, Method: STANDARD PLATE); “inactive; negative. reevaluation of results: negative” (Test System: MOUSE LYMPHOMA, Strain/Indicator: L5178Y (TK+/TK-), Metabolic Activation: NONE, Method: SUSPENSION/PLATE); “inactive; negative. reevaluation of results: negative” (Test System: MOUSE LYMPHOMA, Strain/Indicator: L5178Y (TK+/TK-), Metabolic Activation: RAT, LIVER, S-9, AROCLOR 1254, Method: SUSPENSION/PLATE).
Consider `CCc1cccc(CC)c1NC(=O)CO`, for which the mutagenic call under setting [1] is “inactive; negative”; the mutagenic call (Test System: AMES SALMONELLA TYPHIMURIUM, Strain/Indicator: TA98, Metabolic Activation: RAT, LIVER, MICROSOMES, PHENOBARBITAL, Method: PREINCUBATION) was “inactive; negative”; the mutagenic call under setting [2] was “inactive; negative”; the mutagenic call (Test System: AMES SALMONELLA TYPHIMURIUM, Strain/Indicator: TA100, Metabolic Activation: RAT, LIVER, MICROSOMES, PHENOBARBITAL, Method: PREINCUBATION) is “active; positive”.
As for `O=[N+]([O-])c1cc2[nH]c3ccc4ccc(O)cc4c3c2c2ccccc12`, the mutagenic call reads like this: under setting [4], “active; positive”; (Test System: AMES SALMONELLA TYPHIMURIUM, Strain/Indicator: TA98, Metabolic Activation: RAT, LIVER, S-9, 3-METHYLCHOLANTHRENE, Method: STANDARD PLATE) “active; positive”; under setting [3], “active; positive”; (Test System: AMES SALMONELLA TYPHIMURIUM, Strain/Indicator: TA100, Metabolic Activation: RAT, LIVER, S-9, 3-METHYLCHOLANTHRENE, Method: STANDARD PLATE) “active; positive”.
As to `Brc1ccc(-c2ccc(Br)c(Br)c2)cc1Br`, the mutagenic call runs as follows: (Test System: CHINESE HAMSTER V-79, Strain/Indicator: V-79 (HGPRT)/6-THIOGUANINE, Metabolic Activation: NONE) “inactive; negative”; (Test System: CHINESE HAMSTER V-79, Strain/Indicator: V-79 (HGPRT)/6-THIOGUANINE, Metabolic Activation: RAT, LIVER, S-9, AROCLOR 1254) “inactive; negative”.
Regarding `CC(=O)C=O`, the mutagenic call under setting [1] is “active; positive”; the mutagenic call (Test System: AMES SALMONELLA TYPHIMURIUM, Strain/Indicator: TA98, Metabolic Activation: RAT, LIVER, S-9, AROCLOR 1254, Method: PREINCUBATION) was “inactive; negative”; the mutagenic call under setting [2] is “active; positive”; the mutagenic call under setting [3] was “active; positive”; the mutagenic call (Test System: AMES SALMONELLA TYPHIMURIUM, Strain/Indicator: TA100, Metabolic Activation: RAT, LIVER, S-9, AROCLOR 1254, Method: PREINCUBATION) is “active; positive”; the mutagenic call (Test System: AMES SALMONELLA TYPHIMURIUM, Strain/Indicator: TA102, Metabolic Activation: NONE, Method: PREINCUBATION) is “active; positive”. Also, the mutagenic call by setting is: (Test System: AMES SALMONELLA TYPHIMURIUM, Strain/Indicator: TA102, Metabolic Activation: RAT, LIVER, S-9, AROCLOR 1254, Method: PREINCUBATION) “active; positive”; (Test System: AMES SALMONELLA TYPHIMURIUM, Strain/Indicator: TA102, Metabolic Activation: RAT, LIVER, S-9, PHENOBARBITAL AND BETA-NAPHTHOFLAVONE, Method: PREINCUBATION) “active; positive”; (Test System: AMES SALMONELLA TYPHIMURIUM, Strain/Indicator: TA104, Metabolic Activation: NONE, Method: PREINCUBATION) “active; positive”; (Test System: AMES SALMONELLA TYPHIMURIUM, Strain/Indicator: TA104, Metabolic Activation: RAT, LIVER, S-9, PHENOBARBITAL AND BETA-NAPHTHOFLAVONE, Method: PREINCUBATION) “active; positive”; (Test System: AMES SALMONELLA TYPHIMURIUM, Strain/Indicator: TA2638, Metabolic Activation: NONE, Method: PREINCUBATION) “active; positive”; (Test System: AMES SALMONELLA TYPHIMURIUM, Strain/Indicator: TA2659, Metabolic Activation: NONE, Method: PREINCUBATION) “active; positive”. For the same molecule, the mutagenic call by setting is: (Test System: CHINESE HAMSTER V-79, Strain/Indicator: V-79/6-THIOGUANINE, Metabolic Activation: NONE, Method: PREINCUBATION) “active; positive”; (Test System: CHINESE HAMSTER V-79, Strain/Indicator: V-79/6-THIOGUANINE, Metabolic Activation: RAT HEPATOCYTES, Method: PREINCUBATION) “active; positive”.
